Laboratory results taken from ChEMBL document CHEMBL1201862, “PubChem BioAssay data set” (2004).
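1) Cells in 96-well plates. 2) Compound, 48 h, 5 concentrations. 3) Linear interpolation between surrounding doses. 4) Unreached endpoint = highest concentration. GI50 marks 50% less growth.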 Calls of active or inactive are those of the source. No stated cut-off is given here; in the data, active = GI50 up to about 1.1 µM and inactive = higher. Non-standard residues stand in square brackets, D forms with d. Residues, ends and D or L forms follow the SMILES beside them. ξ: configuration not given here. ξLac(3-iPr) = CC(C)CC(O)C(=O)O; NMeV = CN[CH](C(=O)O)C(C)C; NMeA = CN[CH](C)C(=O)O; βAla = NCCC(=O)O

Key:
Test in all cases: DTP human tumour cell line panel, 48 h
A549 = test system: A549
MDA-MB-231 = test system: MDA-MB-231
UO-31 = test system: UO-31
T47D = test system: T47D
IGROV-1 = test system: IGROV-1
PC-3 = test system: PC-3
MDA-N = test system: MDA-N
HCT-15 = test system: HCT-15
HCC 2998 = test system: HCC 2998
EKVX = test system: EKVX
ACHN = test system: ACHN
NCI-H23 = test system: NCI-H23
HOP-92 = test system: HOP-92
MCF7 = test system: MCF7
786-0 = test system: 786-0
LOX IMVI = test system: LOX IMVI
MOLT-4 = test system: MOLT-4
KM12 = test system: KM12
HOP-62 = test system: HOP-62
OVCAR-3 = test system: OVCAR-3
K562 = test system: K562
M14 = test system: M14
SK-MEL-28 = test system: SK-MEL-28
NCI-H522 = test system: NCI-H522
SW-620 = test system: SW-620
OVCAR-5 = test system: OVCAR-5
UACC-257 = test system: UACC-257
MDA-MB-435 = test system: MDA-MB-435
Hs-578T = test system: Hs-578T
OVCAR-4 = test system: OVCAR-4
RXF 393 = test system: RXF 393
SK-OV-3 = test system: SK-OV-3
SK-MEL-2 = test system: SK-MEL-2
A498 = test system: A498
HL-60 = test system: HL-60
HCT-116 = test system: HCT-116
CAKI-1 = test system: CAKI-1
SNB-19 = test system: SNB-19
U-251 = test system: U-251
SK-MEL-5 = test system: SK-MEL-5
NCI-H226 = test system: NCI-H226
NCI/ADR-RES = test system: NCI/ADR-RES
COLO 205 = test system: COLO 205
UACC-62 = test system: UACC-62
SF-539 = test system: SF-539
RPMI-8226 = test system: RPMI-8226
CCRF-CEM = test system: CCRF-CEM
DU-145 = test system: DU-145
BT-549 = test system: BT-549
OVCAR-8 = test system: OVCAR-8
SNB-75 = test system: SNB-75
SR = test system: SR
SN12C = test system: SN12C
HT-29 = test system: HT-29
Malme-3M = test system: Malme-3M
SF-268 = test system: SF-268
NCI-H460 = test system: NCI-H460
TK-10 = test system: TK-10
SF-295 = test system: SF-295

Cc1cc(O)c(-c2cc(O)c(C)cc2O)cc1O
GI50 (A549): 17.8 µM (inactive)
GI50 (MDA-MB-231): 14.2 µM (inactive)
GI50 (UO-31): 1.92 µM (inactive)
GI50 (T47D): 2.43 µM (inactive)
GI50 (IGROV-1): 11.5 µM (inactive)
GI50 (PC-3): 11.6 µM (inactive)
GI50 (MDA-N): 8.34 µM (inactive)
GI50 (HCT-15): 7.67 µM
GI50 (HCC 2998): 14.1 µM (inactive)
GI50 (EKVX): 8.99 µM (inactive)
GI50 (ACHN): 3.94 µM (inactive)
GI50 (NCI-H23): 10.5 µM (inactive)
GI50 (HOP-92): 2.25 µM (inactive)
GI50 (MCF7): 10 µM (inactive)
GI50 (786-0): 2.94 µM (inactive)
GI50 (LOX IMVI): 5.66 µM (inactive)
GI50 (MOLT-4): 2.06 µM (inactive)
GI50 (KM12): 12.6 µM (inactive)
GI50 (HOP-62): 16.7 µM (inactive)
GI50 (OVCAR-3): 2.14 µM (inactive)
GI50 (K562): 1.86 µM (inactive)
GI50 (M14): 7.67 µM (inactive)
GI50 (SK-MEL-28): 9.23 µM (inactive)
GI50 (NCI-H522): 4.04 µM (inactive)
GI50 (SW-620): 2.34 µM (inactive)
GI50 (OVCAR-5): 16.6 µM (inactive)
GI50 (UACC-257): 7 µM (inactive)
GI50 (MDA-MB-435): 3.05 µM (inactive)
GI50 (Hs-578T): 25.9 µM (inactive)
GI50 (OVCAR-4): 5.5 µM (inactive)
GI50 (RXF 393): 2.38 µM (inactive)
GI50 (SK-OV-3): 16.8 µM (inactive)
GI50 (SK-MEL-2): 17.2 µM (inactive)
GI50 (A498): 21 µM (inactive)
GI50 (HL-60): 1.71 µM (inactive)
GI50 (HCT-116): 5.55 µM (inactive)
GI50 (CAKI-1): 6.07 µM (inactive)
GI50 (SNB-19): 18.9 µM (inactive)
GI50 (U-251): 15 µM (inactive)
GI50 (SK-MEL-5): 14.4 µM (inactive)
GI50 (NCI-H226): 18.7 µM (inactive)
GI50 (NCI/ADR-RES): 26.4 µM (inactive)
GI50 (COLO 205): 7.16 µM (inactive)
GI50 (UACC-62): 15.6 µM (inactive)
GI50 (SF-539): 3.02 µM (inactive)
GI50 (RPMI-8226): 1.66 µM (inactive)
GI50 (CCRF-CEM): 1.08 µM (active)
GI50 (DU-145): 14.9 µM (inactive)
GI50 (BT-549): 12.2 µM (inactive)
GI50 (OVCAR-8): 3.24 µM (inactive)
GI50 (SNB-75): 14.9 µM (inactive)
GI50 (SR): 0.977 µM (active)
GI50 (SN12C): 6.25 µM (inactive)
GI50 (HT-29): 17.1 µM (inactive)
GI50 (Malme-3M): 11.1 µM (inactive)
GI50 (SF-268): 19.1 µM (inactive)
GI50 (NCI-H460): 18.7 µM (inactive)
GI50 (TK-10): 5.93 µM (inactive)
GI50 (SF-295): 16.7 µM (inactive)

CCC(C)C1NC(=O)C2CCCN2C(=O)C(CC(C)C)OC(=O)CCNC(=O)C(C)N(C)C(=O)C(C(C)C)N(C)C1=O (stereo not drawn) (cyclo([ξLac(3-iPr)]PI[NMeV][NMeA][βAla]); configuration not given here)
GI50 (A549): 4.82 µM (inactive)
GI50 (MDA-MB-231): 6.24 µM (inactive)
GI50 (UO-31): 6.84 µM (inactive)
GI50 (T47D): 4.68 µM (inactive)
GI50 (IGROV-1): 5.83 µM (inactive)
GI50 (PC-3): 1.79 µM (inactive)
GI50 (MDA-N): 2.61 µM (inactive)
GI50 (HCT-15): 4.57 µM
GI50 (HCC 2998): 2.13 µM (inactive)
GI50 (EKVX): 10.2 µM (inactive)
GI50 (ACHN): 4.58 µM (inactive)
GI50 (NCI-H23): 9.84 µM (inactive)
GI50 (HOP-92): 17.9 µM (inactive)
GI50 (MCF7): 2.64 µM (inactive)
GI50 (786-0): 2.09 µM (inactive)
GI50 (LOX IMVI): 1.11 µM (active)
GI50 (MOLT-4): 1.83 µM (inactive)
GI50 (KM12): 3.44 µM (inactive)
GI50 (HOP-62): 2.77 µM (inactive)
GI50 (OVCAR-3): 6.7 µM (inactive)
GI50 (K562): 3.16 µM (inactive)
GI50 (M14): 1.91 µM (inactive)
GI50 (SK-MEL-28): 36.1 µM (inactive)
GI50 (NCI-H522): 6.05 µM (inactive)
GI50 (SW-620): 3.73 µM (inactive)
GI50 (OVCAR-5): 4.83 µM (inactive)
GI50 (UACC-257): 6.32 µM (inactive)
GI50 (MDA-MB-435): 2.43 µM (inactive)
GI50 (Hs-578T): 23.2 µM (inactive)
GI50 (OVCAR-4): > 50.7 µM (inactive)
GI50 (RXF 393): 3.83 µM (inactive)
GI50 (SK-OV-3): 20.6 µM (inactive)
GI50 (SK-MEL-2): 2.42 µM (inactive)
GI50 (A498): 23.9 µM (inactive)
GI50 (HL-60): 0.593 µM (active)
GI50 (HCT-116): 2.2 µM (inactive)
GI50 (CAKI-1): 6.95 µM (inactive)
GI50 (SNB-19): 49 µM (inactive)
GI50 (U-251): 10.3 µM (inactive)
GI50 (SK-MEL-5): 1.21 µM (inactive)
GI50 (NCI-H226): > 21.5 µM (inactive)
GI50 (NCI/ADR-RES): 16.1 µM (inactive)
GI50 (COLO 205): 3.61 µM (inactive)
GI50 (UACC-62): 2.21 µM (inactive)
GI50 (SF-539): 7.1 µM (inactive)
GI50 (RPMI-8226): 1.29 µM (inactive)
GI50 (CCRF-CEM): 0.736 µM (active)
GI50 (DU-145): 4.05 µM (inactive)
GI50 (BT-549): > 26.1 µM (inactive)
GI50 (OVCAR-8): 3.48 µM (inactive)
GI50 (SNB-75): 15.5 µM (inactive)
GI50 (SR): 0.766 µM (active)
GI50 (SN12C): 6.84 µM (inactive)
GI50 (HT-29): 1.32 µM (inactive)
GI50 (Malme-3M): 6.55 µM (inactive)
GI50 (SF-268): 6 µM (inactive)
GI50 (NCI-H460): 1.19 µM (inactive)
GI50 (TK-10): 23.2 µM (inactive)
GI50 (SF-295): 2.5 µM (inactive)
